Reference: article PMC7178524, “Comparative Pharmacokinetic Profiles of Puerarin in Rat Plasma by UHPLC-MS/MS after Oral Administration of Pueraria lobata Extract and Pure Puerarin” (Journal of Analytical Methods in Chemistry, 2020)

Columns and labels:
[1] = parameters: method as in PMID 29099639, PMID 29790819; conditions: coadministered with PUR, compared with the control group; cited from earlier work
[2] = Pharmacokinetics of PUR in rat plasma after single oral administration, UHPLC-MS/MS; format: in vivo, male Wistar rats
Method: Male Wistar rats (250−270 g) were purchased from the SPF (Beijing) Biotechnology Co., Ltd. (Beijing, China). The rats were then housed in an animal room to adapt to the environment for a week at standard temperature (23−28°C), humidity (50−65%), free diet, and tap water. Rats were fasted for 12 h before pharmacokinetic experiments and allowed free access to water and sugar during sample collection. Both PUR and PLE were dispersed in a 0.5% carboxymethyl cellulose solution and then sonicated to obtain a homogeneous suspension. A whole blood sample was collected from the infraorbital vein and immediately centrifuged at 3,500 rpm for 10 minutes at 4°C to obtain plasma. Plasma was stored at −20°C for later analysis. The experimental protocol was approved by the Animal Experiment Ethics Review Committee of Jiangsu Vocational College of Medicine.
Chromatographic separation was performed using a Waters Acquity UHPLC system with an Acquity HSS T3 column (1.8 μm, 2.1 × 50 mm, Waters, Milford, MA). Mobile phase A consists of 0.1% aqueous formic acid solution, and mobile phase B consists of 0.1% formic acid acetonitrile. The gradient elution was as follows: 0 to 0.5 min, a linear gradient from 10 to 15% B; 0.5 to 2 min, 15 to 40% B; 2 to 4 min, 40 to 80% B; 4.1 to 5 min, 80 to 99% B; 5.1 to 7 min, a linear gradient back to 10% B. The flow rate was 0.3 mL/min. The column temperature was maintained at 40 °C, and the sample storage compartment was maintained at 4°C. Under these conditions, PUR and berberine hydrochloride were eluted at 2.0 and 3.2 minutes, respectively.
Mass spectrometric detection was performed on a Waters TQD tandem mass spectrometer equipped with an electrospray ionization (ESI) source. The mass spectrometer was operated in multiple reaction monitoring (MRM) positive-ion mode and was quantified using the following transitions: m/z 417.1 > 297.0 for PUR and m/z 336.0 > 320.0 for berberine hydrochloride, and the mass fragment spectrum of PUR and berberine hydrochloride is shown in Figure 2. For all transitions, the cone voltage of 35 V and a collision energy of 30 eV for both PUR and berberine hydrochloride were used, as shown in Table 1. The capillary voltage was set at 2.8 kV, and the source temperature was maintained at 500°C with a gas flow rate of 850 L/h. Argon is used as the collision gas. The cone gas flow was set at 50 L/h. Data acquisition were performed with MassLynx^TM software version 4.1, and quantitation was performed using TargetLynx^TM (Waters, Milford, MA, USA).
Rat plasma sample (100 μL) and IS solution (20 μL, 100 ng/mL) were added to a 1.5 mL Eppendorf tube and vortex-mixed for 30 s, followed by adding 500 μL of acetonitrile to precipitate protein. The mixture was then vortex-mixed for 2 min and centrifuged at 10,000 rpm for 10 min. The supernatant was evaporated to dryness under a stream of nitrogen gas. The obtained residue was reconstituted with methanol-water (80 : 20, v/v), then vortex-mixed for 3min and centrifuged at 13,000 rpm for 10 min. Finally, a 2 μL sample of the supernatant was injected into the UHPLC-MS/MS system for analysis.
The validated method was applied to determine the plasma concentration of PUR in rats after single oral administration of PLE at a dose of 763 mg/kg (equivalent to 100.0 mg/kg of PUR, 1 mL/100g BW) or administration of PUR at a dose of 100 mg/kg (1 mL/100g BW). Twelve male Wistar rats were randomly divided into two groups of six rats each and fasted for 12 h before the experiment. The whole blood samples were collected in heparinized tubes through the suborbital vein of rat at 0.25, 0.5, 0.75, 1, 1.5, 2, 3, 4, 6, 8, 12, 24, 36, and 48 h after gavage administration of drugs. The blood samples were immediately centrifuged at 3,500 rpm for 10 min to obtain plasma. Plasma was stored at −20°C until analysis. […]

MRP2 = conditions: after added probenecid (MRP2 inhibitor); ref "Studies have found", no number given; cited from earlier work
[3] = Stability of PUR in rat plasma (QC samples, four storage conditions); format: in vitro ADME; conditions: for Stability (RE, %) Postextraction: extracted rat plasma sample, auto sampler 4°C for 24 h; for Stability (RE, %) Postextraction / Stability (RE, %) 23°C–28°C/24 h / Stability (RE, %) −20°C/30 day / Stability (RE, %) Freeze-thaw (3 cycles): n = 3; for Stability (RE, %) 23°C–28°C/24 h / Stability (RE, %) −20°C/30 day / Stability (RE, %) Freeze-thaw (3 cycles): rat plasma; for Stability (RE, %) Freeze-thaw (3 cycles): −20°C to 25°C
Method: The stock solutions of PUR at a concentration of 200 μg/mL were prepared with methanol. A series of working solutions (4000, 1000, 400, 200, 100, and 40 ng/mL) were then prepared by diluting the stock solution with methanol. A 100 μg/mL IS stock solution was also prepared with methanol. A working solution of IS was prepared at a concentration of 100 ng/mL by diluting the stock solution with methanol. A standard calibration curve was prepared by adding 20 μL of the abovementioned PUR working solution and 20 μL of the IS working solution to 100 μL of blank plasma. The final plasma concentrations of PUR were in the concentration ranges of 800, 200, 80, 40, 20, and 8 ng/mL. QC samples of low, medium, and high concentrations (8, 80, and 720 ng/mL) of PUR were also prepared following the same procedure as described above. All solutions were kept at 4°C until use.
The stability of the PUR in rat plasma was investigated by analyzing QC samples under four different storage conditions, including three freeze-thaw cycles, room temperature 23−28°C for 24 h, −20°C for 30 days, and postextraction stability after the extracted samples being stored in the auto sampler at the temperature 4°C for 24 h. If the accuracy deviation was within ± 15%, the PUR was considered stable.

P-gp = conditions: after added verapamil (P-gp inhibitor); ref "Studies have found", no number given; cited from earlier work
[4] = male, Wistar, PUR in rat plasma, oral PUR 100 mg/kg, n = 6, mean ± SD

## CC(C)(O)[C@@H]1CC[C@](C)([C@H]2[C@@H](O)C[C@@]3(C)[C@@H]4C[C@H](O[C@@H]5O[C@H](CO)[C@@H](O)[C@H](O)[C@H]5O)[C@H]5C(C)(C)[C@@H](O[C@@H]6OC[C@@H](O)[C@H](O)[C@H]6O)CC[C@@]56C[C@@]46CC[C@]23C)O1 [astragaloside IV]
[1]
  effect on Tmax, Cmax, and AUC0-t of PUR: significantly reduce

## O=c1c(-c2ccc(O)cc2)coc2c([C@@H]3O[C@H](CO)[C@@H](O)[C@H](O)[C@H]3O)c(O)ccc12 [PUR, daidzein-8-C-glucoside]
[2]; [4]
  AUC(0-inf): 220 ± 64.4 ng·h/mL
  AUC(0-t): 213 ± 61.9 ng·h/mL
  Tmax: 1.46 ± 1.08 h
  half-life: 96 ± 22.8 min
[2]; male, Wistar, PUR in rat plasma, oral PUR 100 mg/kg, n = 6, mean ± SD, read-out: CLz/F (converted)
  CL/F: 8480 mL/min/kg
[2]; male, Wistar, PUR in rat plasma, oral PUR 100 mg/kg, n = 6, mean ± SD, read-out: MRT 0-t
  MRT last: 2.22 ± 0.46 h
[2]; male, Wistar, PUR in rat plasma, oral PUR 100 mg/kg, n = 6, mean ± SD, read-out: Vz/F
  Vd/F: 1200 ± 403 L/kg
[2]; male, Wistar, rat plasma, oral puerarin 100 mg/kg, abstract, read-out: maximum concentration (Cmax) of puerarin
  Cmax: 102 ± 41.8 ng/mL
[2]; oral pure PUR 100 mg/kg, rats
  shape of plasma concentration-time curve of PUR: no double-peak phenomenon
MRP2
  increase of intestinal absorption of PUR: 2.3 times
[3]; 8.0 ng/mL
  Stability (RE, %) Postextraction: −7.7%
  Stability (RE, %) 23°C–28°C/24 h: 11.5%
  Stability (RE, %) −20°C/30 day: 11.4%
  Stability (RE, %) Freeze-thaw (3 cycles): 9.3%
[3]; 80.0 ng/mL
  Stability (RE, %) Postextraction: −6.3%
  Stability (RE, %) 23°C–28°C/24 h: 6.5%
  Stability (RE, %) −20°C/30 day: 6.2%
  Stability (RE, %) Freeze-thaw (3 cycles): 5.6%
[3]; 720.0 ng/mL
  Stability (RE, %) Postextraction: 5.9%
  Stability (RE, %) 23°C–28°C/24 h: 8.7%
  Stability (RE, %) −20°C/30 day: −4.7%
  Stability (RE, %) Freeze-thaw (3 cycles): −5.1%
[3]; three freeze/thaw cycles, −20°C for 30 days, 23°C to 28°C for 24 h, postextraction 4°C for 24 h, stable if deviation within ± 15%
  stability in rat plasma under four tested conditions: stable
P-gp
  increase of intestinal absorption of PUR: 2.7 times

## CC1(C)[C@@H](O[C@H]2O[C@H](C(=O)O)[C@@H](O)[C@H](O)[C@H]2O[C@@H]2O[C@H](C(=O)O)[C@@H](O)[C@H](O)[C@H]2O)CC[C@]2(C)[C@H]3C(=O)C=C4[C@@H]5C[C@@](C)(C(=O)O)CC[C@]5(C)CC[C@@]4(C)[C@]3(C)CC[C@@H]12 [glycyrrhizin]
[1]
  effect on Tmax, Cmax, and AUC0-t of PUR: significantly reduce
